Measurements taken from ChEMBL document CHEMBL1147043, “Comparative metabolism of radiolabeled muraglitazar in animals and humans by quantitative and qualitative metabolite profiling” (Drug Metab Dispos, 2007).

Columns and labels:
[1] = Metabolic stability in CD1 mouse hepatocytes assessed as O-dealkyl-O-demethyl muraglitazar level by LC/MS analysis relative to control; format: ADME, cell-based, Hepatocyte
Plasma [2] = test: Biodistribution in orally dosed human plasma assessed as 17-dihydroxy muraglitazar level after 4 hrs by LC/MS analysis; format: ADME, organism-based; conditions: in vivo, po
Hepatocyte [3] = test: Metabolic stability in Sprague-Dawley rat hepatocytes assessed as 12-hydroxy-O-demethyl muraglitazar level by LC/MS analysis relative to control; format: ADME, cell-based
Rattus norvegicus [4] = test: Biodistribution in orally dosed Sprague-Dawley rat feces assessed as 8-hydroxy-O-demethyl muraglitazar level by LC/MS analysis; format: ADME, organism-based; conditions: in vivo, po
Plasma [5] = test: Biodistribution in orally dosed human plasma assessed as O-Dealkyl muraglitazar level after 12 hrs by LC/MS analysis; format: ADME, organism-based; conditions: in vivo, po
Hepatocyte [6] = test: Metabolic stability in Sprague-Dawley rat hepatocytes assessed as 12,17-dihydroxy muraglitazar level by LC/MS analysis relative to control; format: ADME, cell-based
[7] = Biodistribution in orally dosed cynomolgus monkey urine assessed as 12-hydroxy-O-demethyl muraglitazar level by LC/MS analysis; format: ADME, organism-based, Macaca fascicularis; conditions: in vivo, po
[8] = Biodistribution in orally dosed cynomolgus monkey urine assessed as O-dealkyl-O-demethyl muraglitazar level by LC/MS analysis; format: ADME, organism-based, Macaca fascicularis; conditions: in vivo, po
[9] = Biodistribution in orally dosed cynomolgus monkey urine assessed as 8-hydroxy-O-demethyl muraglitazar level by LC/MS analysis; format: ADME, organism-based, Macaca fascicularis; conditions: in vivo, po
Rattus norvegicus [10] = test: Biodistribution in orally dosed Sprague-Dawley rat feces assessed as 17-hydroxy muraglitazar level by LC/MS analysis; format: ADME, organism-based; conditions: in vivo, po, pooled result: one value given for 6 cell lines, strains, targets or settings
[11] = Drug concentration in human feces assessed as recovery of radioactive dose at 20 mg, po after 240 hrs; format: ADME, organism-based; conditions: in vivo
[12] = Biodistribution in orally dosed cynomolgus monkey feces assessed as 12-hydroxy-O-demethyl muraglitazar level by LC/MS analysis; format: ADME, organism-based, Macaca fascicularis; conditions: in vivo, po
[13] = Fecal excretion rate in orally dosed Beagle dog within 24 hrs; format: ADME, organism-based, Canis lupus familiaris; conditions: faeces, po, read-out: Activity
Plasma [14] = test: Biodistribution in orally dosed Beagle dog plasma assessed as 12-hydroxy-O-demethyl muraglitazar level after 4 hrs by LC/MS analysis; format: ADME, organism-based, Canis lupus familiaris; conditions: in vivo, po
[15] = Biodistribution in orally dosed Beagle dog urine assessed as O-dealkyl-O-demethyl muraglitazar level by LC/MS analysis; format: ADME, organism-based, Canis lupus familiaris; conditions: in vivo, po
Hepatocyte [16] = test: Metabolic stability in Sprague-Dawley rat hepatocytes assessed as O-dealkyl-O-demethyl muraglitazar level by LC/MS analysis relative to control; format: ADME, cell-based
Rattus norvegicus [17] = test: Biodistribution in orally dosed Sprague-Dawley rat urine assessed as O-dealkyl muraglitazar level by LC/MS analysis; format: ADME, organism-based; conditions: in vivo, po
Rattus norvegicus [18] = test: Biodistribution in orally dosed Sprague-Dawley rat urine assessed as O-demethyl muraglitazar glucuronide level by LC/MS analysis; format: ADME, organism-based; conditions: in vivo, po
Rattus norvegicus [19] = test: Biodistribution in orally dosed Sprague-Dawley rat urine assessed as 17-hydroxy-O-demethyl muraglitazar level by LC/MS analysis; format: ADME, organism-based; conditions: in vivo, po
Plasma [20] = test: Biodistribution in orally dosed cynomolgus monkey plasma assessed as muraglitazar glucuronide level after 1 hr by LC/MS analysis; format: ADME, organism-based, Macaca fascicularis; conditions: in vivo, po
[21] = Biodistribution in orally dosed cynomolgus monkey feces assessed as acetylimide derivative of muraglitazar level by LC/MS analysis; format: ADME, organism-based, Macaca fascicularis; conditions: in vivo, po
Plasma [22] = test: Biodistribution in orally dosed Beagle dog plasma assessed as O-demethyl muraglitazar level after 4 hrs by LC/MS analysis; format: ADME, organism-based, Canis lupus familiaris; conditions: in vivo, po
Plasma [23] = test: Biodistribution in orally dosed cynomolgus monkey plasma assessed as muraglitazar 12-carboxylic acid level after 12 hrs by LC/MS analysis; format: ADME, organism-based, Macaca fascicularis; conditions: in vivo, po
Plasma [24] = test: Biodistribution in orally dosed cynomolgus monkey plasma assessed as muraglitazar glucuronide level after 4 hrs by LC/MS analysis; format: ADME, organism-based, Macaca fascicularis; conditions: in vivo, po
Hepatocyte [25] = test: Metabolic stability in human hepatocytes assessed as O-demethyl muraglitazar level by LC/MS analysis relative to control; format: ADME, cell-based
Plasma [26] = test: Biodistribution in orally dosed Sprague-Dawley rat plasma assessed as 8-hydroxy-O-demethyl muraglitazar level after 12 hrs by LC/MS analysis; format: ADME, organism-based; conditions: in vivo, po
Rattus norvegicus [27] = test: Biodistribution in orally dosed Sprague-Dawley rat urine assessed as 9-hydroxy muraglitazar level by LC/MS analysis; format: ADME, organism-based; conditions: in vivo, po
Hepatocyte [28] = test: Metabolic stability in Sprague-Dawley rat hepatocytes assessed as 9-hydroxy muraglitazar level by LC/MS analysis relative to control; format: ADME, cell-based
[29] = Half life in Sprague-Dawley rat at 10 mg/kg, po after 24 hrs; format: ADME, organism-based; parameters: dose 10 mg/kg, route oral; conditions: in vivo
Plasma [30] = test: Biodistribution in orally dosed Beagle dog plasma assessed as O-Dealkyl muraglitazar level after 4 hrs by LC/MS analysis; format: ADME, organism-based, Canis lupus familiaris; conditions: in vivo, po
Homo sapiens = test: AUC (0 to T) in human at 10 mg, po after 72 hrs; format: ADME, organism-based, Plasma; parameters: dose 10 mg, time < 72 hr, route oral; conditions: in vivo
Plasma [31] = test: Biodistribution in orally dosed Sprague-Dawley rat plasma assessed as 17-hydroxy-O-demethyl muraglitazar level after 12 hrs by LC/MS analysis; format: ADME, organism-based; conditions: in vivo, po
Plasma [32] = test: Biodistribution in orally dosed human plasma assessed as O-demethyl muraglitazar level after 4 hrs by LC/MS analysis; format: ADME, organism-based; conditions: in vivo, po
[33] = Drug concentration in bile duct-cannulated CD1 mouse feces assessed as recovery of radioactive dose at 1 mg/kg, po after 24 hrs; format: ADME, organism-based; parameters: dose 1 mg/kg, route oral; conditions: in vivo
[34] = Metabolic stability in cynomolgus monkey hepatocytes assessed as hydroxyl-O-demethyl muraglitazar glucuronide level by LC/MS analysis relative to control; format: ADME, cell-based, Macaca fascicularis, Hepatocyte
Cynomolgus monkey = test: AUC (0 to T) in cynomolgus monkey at 1.9 mg/kg, po after 24 hrs; format: ADME, organism-based, Macaca fascicularis, Plasma; parameters: time < 24 hr, dose 1.9 mg/kg, route oral; conditions: in vivo
[35] = Biodistribution in orally dosed Beagle dog feces assessed as 12-hydroxy-O-demethyl muraglitazar level by LC/MS analysis; format: ADME, organism-based, Canis lupus familiaris; conditions: in vivo, po
[36] = Metabolic stability in CD1 mouse hepatocytes assessed as 9-hydroxy-O-demethyl muraglitazar level by LC/MS analysis relative to control; format: ADME, cell-based, Hepatocyte
[37] = Metabolic stability in CD1 mouse hepatocytes assessed as 12,17-dihydroxy muraglitazar level by LC/MS analysis relative to control; format: ADME, cell-based, Hepatocyte
Hepatocyte [38] = test: Metabolic stability in human hepatocytes assessed as 17-hydroxy-O-demethyl muraglitazar level by LC/MS analysis relative to control; format: ADME, cell-based
Hepatocyte [39] = test: Metabolic stability in Sprague-Dawley rat hepatocytes assessed as di-oxygenated muraglitazar level by LC/MS analysis relative to control; format: ADME, cell-based
Plasma [40] = test: Biodistribution in orally dosed Sprague-Dawley rat plasma assessed as muraglitazar glucuronide level after 12 hrs by LC/MS analysis; format: ADME, organism-based; conditions: in vivo, po
Rattus norvegicus [41] = test: Biodistribution in orally dosed Sprague-Dawley rat urine assessed as O-dealkyl-O-demethyl muraglitazar level by LC/MS analysis; format: ADME, organism-based; conditions: in vivo, po
[42] = Fecal excretion of compound in bile duct-cannulated orally dosed Sprague-Dawley rat within 24 hrs; format: ADME, organism-based; conditions: faeces, po, read-out: Activity
Rattus norvegicus [43] = test: Biodistribution in orally dosed Sprague-Dawley rat feces assessed as imide derivative of muraglitazar level by LC/MS analysis; format: ADME, organism-based; conditions: in vivo, po
[44] = Drug concentration in Beagle dog feces assessed as recovery of radioactive dose at 1.9 mg/kg, po after 168 hrs; format: ADME, organism-based, Canis lupus familiaris; parameters: dose 1.9 mg/kg, route oral; conditions: in vivo
[45] = Biodistribution in orally dosed human urine assessed as 8-hydroxy muraglitazar level by LC/MS analysis; format: ADME, organism-based; conditions: in vivo, po
Hepatocyte [46] = test: Metabolic stability in human hepatocytes assessed as hydroxyl muraglitazar glucuronide level by LC/MS analysis relative to control; format: ADME, cell-based
[47] = Metabolic stability in CD1 mouse hepatocytes assessed as 8,12-dihydroxy muraglitazar level by LC/MS analysis relative to control; format: ADME, cell-based, Hepatocyte
[48] = Drug concentration in cynomolgus monkey feces assessed as recovery of radioactive dose at 2 mg/kg, po after 168 hrs; format: ADME, organism-based, Macaca fascicularis; parameters: dose 2 mg/kg, route oral; conditions: in vivo
[49] = Metabolic stability in cynomolgus monkey hepatocytes assessed as 9-hydroxy-O-demethyl muraglitazar level by LC/MS analysis relative to control; format: ADME, cell-based, Macaca fascicularis, Hepatocyte

COc1ccc(OC(=O)N(CC(=O)O)Cc2ccc(OCCc3nc(-c4ccccc4)oc3C)cc2)cc1 [MURAGLITAZAR]
Drug uptake [1]: 5.7%
Drug uptake (Plasma [2]): 0.3%
Drug uptake (Hepatocyte [3]): < 0.2%
Drug uptake (Rattus norvegicus [4]): 9.65%
Drug uptake (Plasma [5]): 0.2%
Drug uptake (Hepatocyte [6]): 0.3%
Drug uptake [7]: 0.26%
Drug uptake [8]: 0.33%
Drug uptake [9]: 0.08%
Drug uptake (Rattus norvegicus [10]): 0.88%
Drug uptake [11]: 50.7%
Drug uptake [12]: 1.61%
dose excreted at 24 h [13]: 85%
Drug uptake (Plasma [14]): 1%
Drug uptake [15]: 0.01%
Drug uptake (Hepatocyte [16]): 0.3%
Drug uptake (Rattus norvegicus [17]): 0.22%
Drug uptake (Rattus norvegicus [18]): < 0.01%
Drug uptake (Rattus norvegicus [19]): 0.01%
Drug uptake (Plasma [20]): 0.1%
Drug uptake [21]: 0.16%
Drug uptake (Plasma [22]): 3%
Drug uptake (Plasma [23]): 0.5%
Drug uptake (Plasma [24]): 0.2%
Drug uptake (Hepatocyte [25]): 2.3%
Drug uptake (Plasma [26]): 0.05%
Drug uptake (Rattus norvegicus [27]): < 0.01%
Drug uptake (Hepatocyte [28]): 0.3%
half-life [29]: 3.8 h
Drug uptake (Plasma [30]): 3%
AUC (Homo sapiens): 9 ugequiv.h/ml
Drug uptake (Plasma [31]): < 0.05%
Drug uptake (Plasma [32]): 0.5%
Drug uptake [33]: 8.2%
Drug uptake [34]: < 0.2%
AUC (Cynomolgus monkey): 71 ugequiv.h/ml
Drug uptake [35]: 0.38%
Drug uptake [36]: 1.2%
Drug uptake [37]: 0.8%
Drug uptake (Hepatocyte [38]): 1.6%
Drug uptake (Hepatocyte [39]): 7.5%
Drug uptake (Plasma [40]): 0.05%
Drug uptake (Rattus norvegicus [41]): 0.21%
dose excreted at 24 h [42]: < 1%
Drug uptake (Rattus norvegicus [43]): 2.63%
Drug uptake [44]: 89%
Drug uptake [45]: 0.03%
Drug uptake (Hepatocyte [46]): 0.2%
Drug uptake [47]: 0.3%
Drug uptake [48]: 80.4%
Drug uptake [49]: 0.5%
